The source of these data is patent US8278485B2, “Process for the production of 2-[4-(3- and 2-fluorobenzyloxy) benzylamino] propanamides” (Newron Pharmaceuticals S.p.A., priority 2006, dated 2012).

Series [1] deals with mice. Briefly: Maximal Electroshock Test (MES) in mice. In kind it is in vivo. As for the experimental part:
Maximal Electroshock Test (MES) in Mice
The maximal electroshock test (MES) is used commonly in the screening of anti-epileptic drugs in rodent models.
Animals and Apparatus: Male CD1 mice weighing 25 g were used. […] The stimulus was delivered intra-aurally through clip electrodes in mice (0.7 seconds of a 40 mA shock, with a pulse train of 80 Hz having a pulse duration of 0.4 ms). The acute effect of compounds administered intraperitoneally or orally 15-60 minutes before MES induction were examined and compared with a vehicle control group. Ten mice were studied per group. Complete suppression of the hindlimb tonic extensor component of seizures was taken as evidence of anticonvulsant activity.
The compounds of the invention were administered orally or intraperitoneally at the doses of 3-30 mg/kg.
The results are expressed in Tables 3 and 4 as % of protection.
(Protection in the maximal electroshock model is a classic sign of anticonvulsant action.)

For the next series, the target named is T1, CYP1A2 (Homo sapiens, UniProt P05177).
T1 construct: purchased Gentest
T1 sequence (P05177 1-516): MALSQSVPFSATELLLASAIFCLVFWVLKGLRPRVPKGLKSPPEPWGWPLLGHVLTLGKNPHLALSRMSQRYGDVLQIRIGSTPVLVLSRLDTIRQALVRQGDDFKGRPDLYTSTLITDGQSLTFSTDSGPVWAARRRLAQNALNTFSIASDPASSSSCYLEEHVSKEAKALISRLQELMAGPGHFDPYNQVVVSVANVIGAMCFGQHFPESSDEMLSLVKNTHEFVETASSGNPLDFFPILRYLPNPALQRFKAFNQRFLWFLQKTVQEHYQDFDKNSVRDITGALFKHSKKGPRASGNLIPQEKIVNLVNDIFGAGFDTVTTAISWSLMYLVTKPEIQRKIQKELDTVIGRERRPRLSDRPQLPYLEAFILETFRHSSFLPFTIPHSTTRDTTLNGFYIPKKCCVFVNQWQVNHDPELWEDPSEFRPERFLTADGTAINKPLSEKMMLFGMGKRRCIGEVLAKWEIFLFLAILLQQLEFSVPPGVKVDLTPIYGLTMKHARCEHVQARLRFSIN
Put plainly: Cytochrome P450 assay (Gentest Kit), CYP1A2. In kind it is in vitro ADME. Particulars: human recombinant isoenzyme. As for the experimental part:
(§1) Inhibition of the five most important Cytochrome P450 isoforms (CYP1A2, CYP2C9, CYP2C19, CYP2D6 and CYP3A4), involved in drug metabolism, was measured using specific substrates that become fluorescent upon CYP metabolism (Gentest Kit assay).
(§2) Compounds were tested in a 96-well plate containing incubation/NADPH regenerating buffer. Specific human recombinant isoenzymes and substrates were added and incubated at 37° C. for 15 minutes for CYP1A2/CEC, […], 45 minutes for CYP2C9/MFC and 30 minutes for the others CYP450.
(§3) The specific substrates were the following: 3-cyano-7-ethoxycoumarin (CYP2C19 and CYP1A2),

A further series has as its target HERG channel (Homo sapiens, UniProt Q12809). Briefly: HERG current in transfected CHO cell lines.
Another series concerns the target T2, CYP2C9 (Homo sapiens, UniProt P11712).
T2 construct: purchased Gentest
Put plainly: Cytochrome P450 assay (Gentest Kit), CYP2C9. In kind it is in vitro ADME. Particulars: human recombinant isoenzyme. As for the experimental part:
as §1, §2
7-methoxy-4-trifluoromethylcoumarin (CYP2C9),

A further series concerns the target T3, CYP2C19 (Homo sapiens, UniProt P33261).
T3 construct: purchased Gentest
Put plainly: Cytochrome P450 assay (Gentest Kit), CYP2C19. The class given is in vitro ADME. Particulars: human recombinant isoenzyme. As for the experimental part: as §1, §2, §3

A further series has as its target T4, CYP3A4 (Homo sapiens, UniProt P08684).
T4 construct: purchased Gentest
Put plainly: Cytochrome P450 assay (Gentest Kit), CYP3A4. In kind it is in vitro ADME. To be noted: human recombinant isoenzyme, Table 1. The protocol: as §1, §2
benzylphenylcoumarin (CYP3A4)

For a further series, the target named is T5, CYP2D6 (Homo sapiens, UniProt P10635).
T5 construct: purchased Gentest
Briefly: Cytochrome P450 assay (Gentest Kit), CYP2D6. In kind it is in vitro ADME. Particulars: human recombinant isoenzyme. The protocol: as §1, §2
3[2(N,N-diethyl-N-mwthylamino) ethyl]-7-methoxy-4-methylcoumarin (CYP2D6)

The nature of series [2]: Cytotoxicity assay in human neuroblastoma cell line SH-SY-5Y. The class given is cell-based. To be noted: SH-SY-5Y neuroblastoma cells, 24 hours incubation, Alamar Blue, concentration inducing 50% of mortality. The protocol: Cytotoxicity Assay in Human Neuroblastoma Cell Line SH-SY-5Y
At time zero, the cells were seeded at 1.10^4/cm^2 in 96 well plates in DMEM growth medium+10% heat inactivated FBS+2 mM 1-Glutamine+100 U/mL-100 μg/mL Penicillin/Streptomycin.
After 72 hours at subconfluent phase of growth, the medium was removed and cells were incubated for 24 hours at 37° C. in 180 μl of neurobasal medium+2 mM 1-Glutamine (Life Technologies) with or without test compounds (20 μl, at least 5 concentrations in triplicate).
At the end of incubation, 20 μl of Alamar Blue dye (AlamarBlue™ Assay Kit, Promega) were directly added to the cell medium.
Four hours after, the cytotoxicity was assessed by measuring the fluorescence at 530 nm excitation and 595 nm emission using Tecan Spectrafluor plate reader.
Before and at the end of the treatment, the cultures were monitored microscopically by an Olympus IX70 inverted light microscope matched to an Image Analyzer (Image Pro Plus, 5.1) to evaluate the cellular morphology.
Results are expressed in Table 1 as concentration inducing 50% of mortality.

Series [3] relates to mice. Briefly: Amphetamine plus chlordiazepoxide-induced hyperlocomotion in mice. In kind it is in vivo. The protocol:
FIG. 1 provides total locomotor activity over 30 min. Mice were treated with ralfinamide (10; 30 and 60 mg/kg, po); or saline and returned to their home cage. After 30 min they received an injection of Amph (2.5 mg/kg; ip); Amph/CDP mixture (2.5 and 3.125 mg/kg; ip) or saline immediately prior to be placed in the test cage. Locomotor activity was recorded for 30 min.
Amphetamine Plus Chlordiazepoxide-Induced Hyperlocomotion in Mice
The anti mania activity, predictive of efficacy in bipolar disorders, was measured using the “Amphetamine plus chlordiazepoxide-induced hyperlocomotion in mice” model according to the following procedure.
In this model, mice are treated with a mixture of d-amphetamine plus an anxiolytic dose of the benzodiazepine, chlordiazepoxide (Rushton R and Steinberg H. Nature 1966; 211: 1312-3; R. Arban, et al. Behavioural Brain Research, 158: 123-132). The model has been claimed to mimic some aspects of mania in bipolar disorder. Importantly, the hyperactivity induced by the mixture of d-amphetamine and chlordiazepoxide could be prevented by prior administration of the established mood stabilizer, lithium, as well as other mood stabilizers drugs (e.g. magnesium valproate and carbamazepine). Therefore, this model has face and predictive validity as a model of bipolar disorders and represents a valuable tool to determine, if a test compound could be a potential mood stabilizer drug candidate.
D-amphetamine (Amph) (2.5 mg/kg ip) plus chlordiazepoxide hydrochloride (CDP) (3 mg/kg ip) were administered to male Albino Swiss mice (25-32 g) in a volume of 10 ml/kg. The locomotor activity was recorded using an automated Activity Cage LE 881 (Panlab) (45×45 cm). This system detects animal movements from 2 levels of 4 side infrared sensors placed all around the square cage. Mice were pretreated with the test compound (0.5-60 mg/kg po) and 30 min later, with Amph (2.5 mg/kg ip) or Amph jointly with CDP (3 mg/kg ip) and were placed individually in the motor activity cages. The locomotor activity was measured in terms of total distance travelled (cm) over a period of 30 min. Each group consisted of 8-10 mice.
Statistical analysis: a two-way analysis of variance (ANOVA) with Amph treatment factor and drug treatment factor was performed. Bonferroni's procedure was used for multiple comparison post hoc analysis.
D-amphetamine-chlordiazepoxide administration induced a significant increase in locomotor activity.

T3 sequence (P33261 whole entry): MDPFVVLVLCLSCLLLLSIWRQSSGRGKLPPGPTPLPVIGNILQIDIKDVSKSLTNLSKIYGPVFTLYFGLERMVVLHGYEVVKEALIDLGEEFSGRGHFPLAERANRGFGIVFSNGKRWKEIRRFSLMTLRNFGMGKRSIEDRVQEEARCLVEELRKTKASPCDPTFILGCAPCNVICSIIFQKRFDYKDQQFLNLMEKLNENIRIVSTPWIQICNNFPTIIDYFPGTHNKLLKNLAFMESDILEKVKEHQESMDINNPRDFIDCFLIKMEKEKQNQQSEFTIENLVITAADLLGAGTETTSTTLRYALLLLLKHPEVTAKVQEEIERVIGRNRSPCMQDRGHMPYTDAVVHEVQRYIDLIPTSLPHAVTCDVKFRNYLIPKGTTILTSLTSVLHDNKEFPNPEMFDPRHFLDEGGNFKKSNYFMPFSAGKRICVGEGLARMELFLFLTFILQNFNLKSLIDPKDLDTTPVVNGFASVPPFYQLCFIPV
T5 sequence (P10635 whole entry): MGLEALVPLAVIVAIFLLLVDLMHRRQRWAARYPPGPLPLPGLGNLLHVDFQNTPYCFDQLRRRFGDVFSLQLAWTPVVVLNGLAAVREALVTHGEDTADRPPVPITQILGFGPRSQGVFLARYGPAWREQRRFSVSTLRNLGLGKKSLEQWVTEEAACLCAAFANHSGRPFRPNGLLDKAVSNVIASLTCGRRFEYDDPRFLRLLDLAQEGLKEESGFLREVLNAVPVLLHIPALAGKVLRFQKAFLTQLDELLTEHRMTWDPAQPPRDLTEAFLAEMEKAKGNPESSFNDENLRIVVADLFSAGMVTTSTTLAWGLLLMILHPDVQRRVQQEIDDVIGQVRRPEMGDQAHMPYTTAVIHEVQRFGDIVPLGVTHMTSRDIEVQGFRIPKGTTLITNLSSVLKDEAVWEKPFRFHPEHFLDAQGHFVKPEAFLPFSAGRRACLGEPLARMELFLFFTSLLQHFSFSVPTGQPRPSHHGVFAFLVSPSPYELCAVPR
T2 sequence (P11712 whole entry): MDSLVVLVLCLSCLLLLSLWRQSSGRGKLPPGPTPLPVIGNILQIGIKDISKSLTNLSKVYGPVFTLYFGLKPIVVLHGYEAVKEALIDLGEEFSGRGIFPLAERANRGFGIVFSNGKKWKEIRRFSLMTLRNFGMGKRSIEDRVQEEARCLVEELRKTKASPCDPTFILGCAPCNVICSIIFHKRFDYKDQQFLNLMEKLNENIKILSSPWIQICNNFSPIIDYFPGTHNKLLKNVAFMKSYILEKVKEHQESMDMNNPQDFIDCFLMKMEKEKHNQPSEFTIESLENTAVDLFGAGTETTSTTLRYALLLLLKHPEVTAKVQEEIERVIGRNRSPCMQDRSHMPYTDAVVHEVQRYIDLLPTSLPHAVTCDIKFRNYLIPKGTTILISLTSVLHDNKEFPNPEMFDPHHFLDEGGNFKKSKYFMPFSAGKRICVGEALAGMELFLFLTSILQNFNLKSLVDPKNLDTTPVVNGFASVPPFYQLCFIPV
Chain of HERG channel (Q12809 whole entry): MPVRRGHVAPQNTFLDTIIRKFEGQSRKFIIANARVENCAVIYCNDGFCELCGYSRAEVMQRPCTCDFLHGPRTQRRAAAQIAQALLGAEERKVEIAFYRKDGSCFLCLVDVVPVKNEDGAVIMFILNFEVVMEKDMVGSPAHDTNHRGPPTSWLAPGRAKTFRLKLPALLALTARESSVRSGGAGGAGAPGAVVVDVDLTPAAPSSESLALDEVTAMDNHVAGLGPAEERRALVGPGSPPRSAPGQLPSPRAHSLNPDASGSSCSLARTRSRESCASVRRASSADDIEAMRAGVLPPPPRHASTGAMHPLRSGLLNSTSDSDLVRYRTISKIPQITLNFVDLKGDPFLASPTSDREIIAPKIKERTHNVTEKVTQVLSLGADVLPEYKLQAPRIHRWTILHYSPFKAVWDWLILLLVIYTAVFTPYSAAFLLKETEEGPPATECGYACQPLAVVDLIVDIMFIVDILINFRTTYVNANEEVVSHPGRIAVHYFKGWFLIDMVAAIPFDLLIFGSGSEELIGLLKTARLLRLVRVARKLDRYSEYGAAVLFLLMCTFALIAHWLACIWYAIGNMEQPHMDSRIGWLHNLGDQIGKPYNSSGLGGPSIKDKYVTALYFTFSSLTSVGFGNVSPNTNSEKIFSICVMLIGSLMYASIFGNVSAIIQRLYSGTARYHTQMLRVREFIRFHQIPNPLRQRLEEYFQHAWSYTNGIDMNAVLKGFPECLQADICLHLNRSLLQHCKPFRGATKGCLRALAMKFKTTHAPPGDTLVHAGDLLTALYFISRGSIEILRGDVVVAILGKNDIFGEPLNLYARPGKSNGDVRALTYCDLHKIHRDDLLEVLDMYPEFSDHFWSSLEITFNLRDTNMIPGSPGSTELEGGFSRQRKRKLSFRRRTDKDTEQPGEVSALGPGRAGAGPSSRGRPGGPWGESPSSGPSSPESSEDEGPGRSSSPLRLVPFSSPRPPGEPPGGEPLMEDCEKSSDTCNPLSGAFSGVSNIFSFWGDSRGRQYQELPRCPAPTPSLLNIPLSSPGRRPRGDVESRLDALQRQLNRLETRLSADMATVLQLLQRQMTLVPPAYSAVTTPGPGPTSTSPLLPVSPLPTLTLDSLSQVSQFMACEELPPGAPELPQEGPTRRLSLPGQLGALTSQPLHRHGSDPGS
T4 sequence (P08684 whole entry): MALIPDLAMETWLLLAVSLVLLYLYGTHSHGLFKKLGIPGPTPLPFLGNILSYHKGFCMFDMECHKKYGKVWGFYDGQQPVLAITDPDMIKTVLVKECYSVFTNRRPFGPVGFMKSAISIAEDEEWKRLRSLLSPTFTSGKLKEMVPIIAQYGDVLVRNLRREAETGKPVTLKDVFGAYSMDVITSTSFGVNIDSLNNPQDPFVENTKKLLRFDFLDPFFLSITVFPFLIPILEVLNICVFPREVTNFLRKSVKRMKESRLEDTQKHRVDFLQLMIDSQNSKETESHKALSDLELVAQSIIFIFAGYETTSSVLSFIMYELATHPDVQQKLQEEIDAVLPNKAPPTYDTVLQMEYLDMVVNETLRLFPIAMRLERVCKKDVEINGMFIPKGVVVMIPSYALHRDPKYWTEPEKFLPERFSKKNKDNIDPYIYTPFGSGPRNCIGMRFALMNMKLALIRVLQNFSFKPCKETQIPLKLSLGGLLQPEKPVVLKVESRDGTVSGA
Experimental for HERG channel: The inhibition of HERG current was tested in CHO cells stably expressing recombinant HERG channel.
To evaluate the effect of the test compounds on HERG currents, cells were clamped at −80 Mv, depolarised to 0 mV for 5 seconds allowing activation of HERG current and repolarised to −50 mV during 5 seconds allowing HERG tail current to deactivate. This procedure was repeated at a frequency of 0.06 Hz. The current amplitude upon repolarisation (HERG tail current) was measured before and after exposure to the test compound.
Inhibition of current was calculated as the difference between the amplitude of HERG tail current amplitude measured at the end of external bath perfusion period and HERG tail current measured at the end of test compound perfusion period (when steady-state effect is reached) divided by control HERG tail current.
Drug concentration-inhibition curves were obtained by plotting tonic blocks versus drug concentrations. Dose-response curves were fitted to the tonic block data, according to the logistic equation: y=A2+(A1−A2)/[1+(x/IC50)^p].

What is called IC50 is the point on the concentration scale where inhibition reaches its midpoint. `C[C@H](NCc1ccc(OCc2cccc(F)c2)c(Cc2cccc(F)c2)c1)C(N)=O` [Impurity IIc, (S)-2-[3-(3-fluorobenzyl)-4-(3-fluorobenzyloxy)-benzylamino]propanamide methanesulfonate]: the MES % protection with mice [1] (mice, 3 mg/kg ip) is given as 0%; in the series with mice [1] (mice, 10 mg/kg ip), 0%; in the series on mice [1] (mice, 30 mg/kg ip) it was 0%. The MES dead/live is 5/10 in the series with mice [1] (mice, 3 mg/kg ip); 4/10 in the series on mice [1] (mice, 10 mg/kg ip); 4/10 in the series with mice [1] (mice, 30 mg/kg ip). Further, the “pharmacological activity, i.e. protection from convulsions, in MES test” value in the series with mice [1] (mice, ip, from 3 mg/kg) is “without any pharmacological activity”. In addition, the “mortality in the mice MES test” value in the series with mice [1] (starting from 3 mg/kg ip) is “increases”. In addition, the IC50 is greater than 40 µM on CYP1A2; 1.2 µM on HERG channel; 7.29 µM at CYP2C9; 0.42 µM on CYP2C19; 0.05 µM at CYP3A4; 0.77 µM on CYP2D6. The IC50 at 24 h in series [2] was 6.7 µM.

For the compound `C[C@H](NCc1ccc(OCc2ccccc2F)c(Cc2ccccc2F)c1)C(N)=O` [Impurity IId, (S)-2-[3-(2-fluorobenzyl)-4-(2-fluorobenzyloxy)-benzylamino]propanamide methanesulfonate], in the series with mice [1] (mice, 10 mg/kg p.o.), the “MES Protection %” value came out at 0%. Also, the “MES dead/live” value was 0/10 in the series with mice [1] (mice, 10 mg/kg p.o.) and 0/10 with mice [1] (mice, 20 mg/kg p.o.). Besides, the “MES (head blank; protection)” value with mice [1] (mice, 20 mg/kg p.o.) was 0%. Besides, the “protection from convulsions in MES test” value in the series on mice [1] (mice, p.o. at 10 and 20 mg/kg) is recorded as “doesn't protect”. Moreover, the IC50 is greater than 40 µM on CYP1A2; 2.66 µM against HERG channel; 8.01 µM at CYP2C9; 1.89 µM at CYP2C19; 0.05 µM at CYP3A4; 0.92 µM on CYP2D6. In series [2], the IC50 at 24 h worked out at 15 µM.

In the case of `C[C@H](NCc1ccc(OCc2ccccc2F)cc1)C(N)=O` [ralfinamide, (S)-2-[4-(2-fluorobenzyloxy)-benzylamino]propanamide], the “total locomotor activity over 30 min, Bonferroni versus Amph/CDP mixture” value in the series with mice [3] (30 mg/kg po) was “statistical difference”. Also, in the series on mice [3] (60 mg/kg po), the “total locomotor activity over 30 min, Bonferroni versus Amph alone” value is “statistical difference” and the “total locomotor activity over 30 min, Bonferroni versus Amph/CDP mixture” value is listed as “statistical difference”. Moreover, in the series with mice [3] (orally administered, 30 min before Amph/CDP ip), the “hyperactivity induced by Amph/CDP mixture (locomotor activity)” value is listed as “significantly decreasing the hyperactivity”.

Regarding `CS(=O)(=O)O.C[C@H](NCc1ccc(OCc2cccc(F)c2)cc1)C(N)=O` [Safinamide methanesulfonate, (S)-2-[4-(3-fluorobenzyloxy)benzylamino]propanamide methanesulfonate], the MES % protection in the series on mice [1] (mice, 3 mg/kg ip) was found to be 50%; with mice [1] (mice, 10 mg/kg ip) it was 100%; with mice [1] (mice, 30 mg/kg ip) it was 100%. Moreover, the IC50 at CYP1A2 is greater than 40 µM; at HERG channel it was 27 µM; on CYP2C9, greater than 40 µM; on CYP2C19, 23.9 µM; at CYP2D6, greater than 40 µM. For the same compound, in [2], the IC50 at 24 h was determined as 248 µM.

`CS(=O)(=O)O.C[C@H](NCc1ccc(OCc2ccccc2F)cc1)C(N)=O` [Ralfinamide methanesulfonate, (S)-2-[4-(2-fluorobenzyloxy)benzylamino]propanamide methanesulfonate]: the “MES Protection %” value in the series with mice [1] (mice, 10 mg/kg p.o.) came to 60%. Besides, in the series on mice [1] (mice, 20 mg/kg p.o.), the “MES (head blank; protection)” value was 90%. In addition, the IC50 on CYP1A2 was greater than 40 µM; against HERG channel it was 18 µM; on CYP2C9, greater than 40 µM; at CYP2C19, greater than 40 µM; on CYP2D6 it was greater than 40 µM. Besides, the IC50 at 24 h in series [2] is greater than 300 µM.
